{"source": "patent US20030180387A1", "about": "“Method for increasing the antioxidative potential of selenium-containing aqueous solutions” (priority 2000, published 2003)", "origin": "cited, not measured here", "note": "Where two headings read alike, the source gives them in different places."}
{"smiles": "O=[Se](O)O", "note": "[selenite]", "values": [{"measurement": "Eo, standard redox potential", "setting": "acidic environment", "value": "−0.740 (acidic environment) Volt"}, {"measurement": "Eo, standard redox potential", "setting": "basic environment", "value": "+0.366 (basic environment) Volt"}]}
